Results from patent US7906283B2, “Methods to identify patients at risk of developing adverse events during treatment with antidepressant medication” (The United States of America as represented by the …, priority 2006, dated 2011).

Test system: outpatients with major depressive disorder
Test: STAR*D trial: treatment-emergent suicidal ideation (TESI) by QIDS-SR16 item 12 during citalopram treatment
Format: in vivo, human
Conditions: citalopram typically starting at 20 mg/day, up to 14 weeks; comparison group n=1742; 53 participants missing data excluded
Description: DNA was collected from a clinically-representative cohort of 1938 outpatients with major depressive disorder enrolled in the Sequenced Treatment Alternatives to Relieve Depression (STAR*D) trial. Outpatients 18-75 years of age with a baseline 17-item Hamilton Depression Rating Scale (see Hamilton et al., J. Neurol. Neurosurg. Psychiatry, 23: 56-62 (1960); and Hamilton, Br. J. Soc. Clin. Psychol., 6(4): 278-296 (1967)) (HRSD17) score of ≧14 who met the Diagnostic and Statistical Manual of Mental Disorders (DSM)-IV criteria for non-psychotic major depressive disorder (MDD) were eligible for the trial. […]
The 16-item Quick Inventory of Depressive Symptomatology—Self-report (QIDS-SR16) was used as a measure of symptom severity (see Rush et al., Int. J. Methods Psychiatr. Res., 9: 45-59 (2000): Rush et al., Biol. Psychiatry, 54(5): 573-583 (2003); Trivedi et al., Psychol. Med., 34(1): 73-82 (2004); Rush et al., Neuropsychompharmacology, 30(2): 405-416 (2005); and Rush et al., Biol. Psychiatry, 59(6): 493-501 (2006)) and was obtained at baseline and at each bi-weekly clinic visit. […] Participants who scored “0” on this item before citalopram treatment, but who scored 1, 2, or 3 on the same item at least once while receiving citalopram were defined as TESI cases (n=120). […]

## CN(C)CCCC1(c2ccc(F)cc2)OCc2cc(C#N)ccc21 (stereo not shown) [citalopram]
  TESI cases (scored 0 on QIDS-SR16 item 12 before citalopram treatment, but 1, 2 or 3 at least once while receiving citalopram): 120 participants
